Measured values taken from US20050187208A1 (priority 2004, published 2005).

How the values were obtained:
[1] = biological target: T1, transfected human CB1 receptor (Homo sapiens, UniProt P21554); assay: In-vitro determination of affinity to CB1 receptor, radioligand [^3H]-CP55940; assay type: binding; settings: for inhibition at 1 µM: read-out: CB1 Receptor % Inhibition 10^−6 M
T1 construct: purchased Receptor Biology, Inc
Description: (§1) I. In-vitro Determination of Affinity to CB1/CB2-Rezeptors
(§2) The in-vitro determination of the affinity of the inventive substituted azetidine compounds to CB1/CB2-Receptors is carried out as described in the publication of Ruth A. Ross, Heather C. Brockie et al., “Agonist-inverse agonist characterization at CB1 and CB2 cannabinoid receptors of L-759633, L759656 and AM630”, British Journal of Pharmacology, 126, 665-672, (1999). The respective parts of the descriptions are hereby incorporated by reference and form part of the present disclosure. The transfected human CB1 and CB2 receptor are obtained from Receptor Biology, Inc. The radioligand used for both receptors is [^3H]-CP55940.
(§3) The affinity of the inventive substituted azetidine compounds to CB1/CB2 receptors is determined as described above.

cannabinoid receptors [2] = assay: Mouse tetrad model, agonistic effect (hot plate, hypothermia, catalepsy, sedation); assay type: in vivo; design: key to Agonistic effect A: Hot-Plate test: % MPE = (PT−B)/(PC−B)×100; key to Agonistic effect D: Sedation: % sedation = mean score (0-3)/3×100; Agonistic effect B: Hypothermia: unit not given here; settings: 5 mg/kg i.v., male NMRI mice; for Agonistic effect A: Hot-Plate test: 15 minutes after injection; for Agonistic effect B: Hypothermia / Agonistic effect C: Catalepsy / Agonistic effect D: Sedation: 20 minutes after injection
Text: (§4) Substances with affinity for cannabinoid receptors are known to produce a wide range of pharmacological effects. It is also known that intravenous administration of a substance with affinity for cannabinoid receptors in mice produces analgesia, hypothermia, sedation and catalepsy. Individually, none of these effects can be considered as proof that a tested substance has affinity for cannabinoid-receptors, since all of these effects are common for various classes of centrally active agents. However, substances, which show all of these effects, i.e. substances that are active in this so-called tetrad model are considered to have affinity for the cannabinoid receptors. It has further been shown that cannabinoid receptor antagonists are higly effective in blocking the effects of a cannabinoid agonist in the mouse tetrad model.
(§5) The tetrad model is described, for example, in the publication of A. C. Howlett et al, International Union of Pharmacology XXVII. Classification of Cannabinoid Receptors, Pharmacol Rev 54, 161-202, 2002 and David R. Compton et al., “In-vivo Characterization of a Specific Cannabinoid Receptor Antagonist (SR141716A): Inhibition of Tetrahydrocannbinol-induced Responses and Apparent Agonist Activity”, J. Pharmacol. Exp. Ther. 277, 2, 586-594, 1996. The corresponding parts of the description are hereby incorporated by reference.
(§6) Male NMRI mice with a weight of 20-30 g (Harlan, Barcelona, Spain) are used in all of the following experiments.
(§7) Before testing in the behavioral procedures given below, mice are acclimatized to the experimental setting. Pre-Treatment control values are determined for analgesia hot plate latency (in seconds), rectal temperature, sedation and catalepsy.
(§8) In order to determine the agonistic activty of the substance to be tested, the mice are injected intravenously with the substance to be tested or the vehicle alone. 15 minutes after injection, latency in hot plate analgesia is measured. Rectal temperature, sedation and catalepsy are measured 20 minutes after injection.
(§9) The hot plate analgesia is determined according to the method described in Woolfe D. et al. “The evaluation of analgesic action of pethidine hydrochloride (Demerol)”, J. Pharmacol. Exp. Ther. 80, 300-307, 1944. The respective description is hereby incorporated by reference and forms part of the present disclosure.
(§10) The mice are placed on a hot plate (Harvard Analgesimeter) at 55±0.5° C. until they show a painful sensation by licking their paws or jumping and the time for these sensations to occur is recorded. This reading is considered the basal value (B). The maximum time limit the mice are allowed to remain on the hot plate in absence of any painful response is 40 seconds in order to prevent skin damage. This period is called the cut-off time (PC).
(§11) Fifteen minuts after the administration of the substance to be tested, the mice are again placed on the hot plate and the afore described procedure is repeated. This period is called the post-treatment reading (PT).
(§12) The degree of analgesia is calculated from the formula: % MPE of Analgesia=(PT−B)/(PC−B)×100 • MPE Maximum possible effect. Determination of Sedation and Ataxia
(§13) Sedation and ataxia is determined according to the method described in Desmet L. K. C. et al. “Anticonvulsive properties of.Cinarizine and Flunarizine in Rats and Mice”, Arzneim. -Forsch. (Frug Res) 25, 9, 1975. The respective description is hereby incorporated by reference and forms part of the present disclosure.
The chosen scoring system is • 0: no ataxia; • 1: doubful; • 2: obvious calmness and quiet; • 3 pronounced ataxia; prior to as well as after treatment.
The percentage of sedation is determined according to the formula: % of sedation=arithmetic mean/3×100 Hypothermia: […]

cannabinoid receptors [3] = assay: Mouse tetrad model, antagonistic effect against Win 55212-2; assay type: in vivo; design: unit not given here; settings: 5 mg/kg i.v. prior to Win 55212-2 1.25 mg/kg i.v.; male NMRI mice
Text: as §4, §5, §6, §7, §8
In order to determine the antagonistic activity the identical procedure is used as for the determination of the agonistic effects, but with the difference that the substance to be evaluated for its antagonistic activity is injectected 5 minutes before the intravenous injection of 1.25 mg/kg Win-55,212 a known cannabinoid-receptor agonist.
as §9, §10, §11, §12, §13
The chosen scoring system is • 0: no ataxia; • 1: doubful; • 2: obvious calmness and quiet; • 3 pronounced ataxia; prior to as well as after treatment. […]

[4] = biological target: T2, transfected human CB2 receptor (Homo sapiens, UniProt P34972); assay: In-vitro determination of affinity to CB2 receptor, radioligand [^3H]-CP55940; assay type: binding; settings: 10^−6 M
T2 construct: purchased Receptor Biology, Inc
T2 sequence (P34972 whole entry): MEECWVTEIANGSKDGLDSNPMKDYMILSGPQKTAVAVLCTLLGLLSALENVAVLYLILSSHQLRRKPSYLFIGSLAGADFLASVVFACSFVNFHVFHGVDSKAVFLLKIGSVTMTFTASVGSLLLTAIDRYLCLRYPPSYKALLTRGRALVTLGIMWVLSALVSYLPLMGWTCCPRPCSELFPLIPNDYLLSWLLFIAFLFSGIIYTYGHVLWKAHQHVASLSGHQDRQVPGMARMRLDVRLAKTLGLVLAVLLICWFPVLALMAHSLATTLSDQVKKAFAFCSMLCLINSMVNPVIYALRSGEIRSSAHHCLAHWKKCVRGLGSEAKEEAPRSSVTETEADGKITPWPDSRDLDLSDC
Description: as §1, §2, §3

T1 sequence (P21554 whole entry): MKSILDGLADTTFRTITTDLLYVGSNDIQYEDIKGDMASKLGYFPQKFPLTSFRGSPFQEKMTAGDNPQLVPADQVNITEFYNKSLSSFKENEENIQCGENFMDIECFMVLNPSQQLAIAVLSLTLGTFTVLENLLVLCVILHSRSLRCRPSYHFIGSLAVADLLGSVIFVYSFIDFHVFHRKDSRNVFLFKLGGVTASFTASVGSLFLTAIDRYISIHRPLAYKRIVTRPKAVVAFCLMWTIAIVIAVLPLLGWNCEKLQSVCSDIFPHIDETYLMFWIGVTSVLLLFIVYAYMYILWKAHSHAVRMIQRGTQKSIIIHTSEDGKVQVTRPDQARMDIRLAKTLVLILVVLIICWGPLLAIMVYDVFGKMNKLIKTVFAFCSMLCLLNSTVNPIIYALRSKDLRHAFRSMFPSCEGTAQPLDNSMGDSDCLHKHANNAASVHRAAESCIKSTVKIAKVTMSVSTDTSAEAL

Structure (SMILES) | inhibition at 1 µM [1] [%] | Agonistic effect A: Hot-Plate test (cannabinoid receptors [2]) | Agonistic effect B: Hypothermia (cannabinoid receptors [2]) | Agonistic effect C: Catalepsy (cannabinoid receptors [2]) | Agonistic effect D: Sedation (cannabinoid receptors [2]) | Antagonistic Effect A: Hot-Plate test (cannabinoid receptors [3]) | Antagonistic Effect B: Hypothermia (cannabinoid receptors [3]) | Antagonistic Effect C: Catalepsy (cannabinoid receptors [3]) | Antagonistic Effect D: Sedation (cannabinoid receptors [3]) | melting point [°C] | Ki ([1]; radioligand [^3H]-CP55940) [nM] | inhibition at 1 µM [4] [%]
C[C@@H]1[C@@H](NS(=O)(=O)c2ccc(S(C)(=O)=O)cc2)CN1C(c1ccc(Cl)cc1)c1ccc(Cl)cc1 (relative stereo) [Example 14, N-{trans-1-[Bis-(4chloro-phenyl)methyl]-2-methyl-azetidin-3-yl}-4-methylsulfonyl-benzenesulfonamide] | 82 | 16 | 0 | 0 | 0 | 12 | 71 | 14 | 9 | 202 to 204 |  | 
C[C@H]1[C@H](NS(=O)(=O)c2ccc(F)cc2)CN1C(c1ccc(Cl)cc1)c1ccc(Cl)cc1 [Example 5, (2S, 3R)-N-{1-[Bis-(4-chlorophenyl)methyl]-2-methylazetidin-3-yl}-4-fluoro-benzene sulfonamide] | 59 | 2 | 0 | 0 | 0 | 77 | 100 | 71 | 57 | 154 to 157 | 264 | 4.6
C[C@H]1[C@H](NS(=O)(=O)c2cccs2)CN1C(c1ccc(Cl)cc1)c1ccc(Cl)cc1 [Example 6, Thiophene-2-sulfonic acid {(2S,3R)-1-[bis-(4-chloro-phenyl)-methyl]-2-methyl-azetidin-3-yl}-amide] | 66 | 0 | 0 | 0 | 0 | 32 | 32 | 51 | 46 | 72 to 76 |  | 13.5
